Source: paper PMC9249791, “Molecular dissection of the glutamine synthetase-GlnR nitrogen regulatory circuitry in Gram-positive bacteria” (Nature Communications, 2022)
pKd: −log10 of the molar value.

Key:
Assay type in all cases: binding
Sa GS = target: T1, Sa GS (Staphylococcus aureus, UniProt P0A040); test: isothermal titration calorimetry
T1 construct: gene glnA; full-length, synthetic gene in pET15b, N-terminal His-tag, E. coli C41(DE3); tag removed only for crystallography; dodecamer (double hexamer ring)
T1 sequence (P0A040 1-446): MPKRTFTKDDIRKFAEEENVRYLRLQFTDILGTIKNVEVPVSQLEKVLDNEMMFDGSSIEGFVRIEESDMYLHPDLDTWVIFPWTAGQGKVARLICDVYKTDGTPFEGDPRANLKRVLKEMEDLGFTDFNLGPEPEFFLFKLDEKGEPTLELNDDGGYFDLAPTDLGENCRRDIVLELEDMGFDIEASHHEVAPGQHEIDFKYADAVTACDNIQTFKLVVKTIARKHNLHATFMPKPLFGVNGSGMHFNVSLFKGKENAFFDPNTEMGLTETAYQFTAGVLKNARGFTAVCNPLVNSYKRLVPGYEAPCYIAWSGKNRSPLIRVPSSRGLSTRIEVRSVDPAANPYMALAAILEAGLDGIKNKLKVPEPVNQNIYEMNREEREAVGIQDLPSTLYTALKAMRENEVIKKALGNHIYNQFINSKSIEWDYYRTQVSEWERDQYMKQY

Pp GS = target: T2, Pp GS (Paenibacillus polymyxa, UniProt A0A0F0G8G2); test: cryo-EM structure […]-2.[…] Å; conditions: 20 mM glutamine, 5 mM MgCl2, pH 7.5, with GlnR C-tail peptide; overlaps glutamate site
T2 construct: gene glnA2; full-length, synthetic gene in pET15b, N-terminal His-tag (removed by thrombin for crystallography), E. coli C41(DE3)
T2 sequence (A0A0F0G8G2 1-442): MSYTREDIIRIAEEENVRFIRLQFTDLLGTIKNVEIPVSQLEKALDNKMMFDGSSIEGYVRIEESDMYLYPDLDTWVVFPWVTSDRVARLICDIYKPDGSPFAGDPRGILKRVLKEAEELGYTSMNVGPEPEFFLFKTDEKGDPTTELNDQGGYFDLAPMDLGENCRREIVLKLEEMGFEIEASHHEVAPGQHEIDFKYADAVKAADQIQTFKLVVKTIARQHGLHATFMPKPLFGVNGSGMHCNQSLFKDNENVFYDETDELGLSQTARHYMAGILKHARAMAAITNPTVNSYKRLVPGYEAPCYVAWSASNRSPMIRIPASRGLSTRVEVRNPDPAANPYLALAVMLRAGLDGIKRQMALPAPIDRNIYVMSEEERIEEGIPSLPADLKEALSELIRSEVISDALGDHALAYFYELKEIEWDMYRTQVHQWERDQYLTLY

Lm GS = target: T3, Lm GS (Listeria monocytogenes, UniProt A0A5D5GA79); test: cryo-EM structure […] Å; conditions: 20 mM glutamine, 5 mM MgCl2, pH 7.5, with GlnR C-tail peptide; overlaps glutamate site
T3 construct: gene glnA; full-length, synthetic gene in pET15b, N-terminal His-tag, E. coli C41(DE3); apo dodecamer
T3 sequence (A0A5D5GA79 1-444): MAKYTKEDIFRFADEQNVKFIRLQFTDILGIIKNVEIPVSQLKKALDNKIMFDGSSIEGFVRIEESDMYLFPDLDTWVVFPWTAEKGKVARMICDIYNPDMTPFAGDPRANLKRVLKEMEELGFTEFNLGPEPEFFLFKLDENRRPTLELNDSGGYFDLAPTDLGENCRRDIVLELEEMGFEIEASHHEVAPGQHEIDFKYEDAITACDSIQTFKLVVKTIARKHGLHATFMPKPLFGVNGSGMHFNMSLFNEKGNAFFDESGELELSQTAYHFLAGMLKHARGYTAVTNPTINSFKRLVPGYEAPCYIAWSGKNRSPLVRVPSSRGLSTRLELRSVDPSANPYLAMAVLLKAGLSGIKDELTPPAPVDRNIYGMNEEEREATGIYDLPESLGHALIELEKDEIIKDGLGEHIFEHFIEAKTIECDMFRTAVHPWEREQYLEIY

Bs GS = target: T4, Bs GS (Bacillus subtilis, UniProt P12425); test: cryo-EM structure […] Å; conditions: 20 mM glutamine, 5 mM MgCl2, pH 7.5, with GlnR C-tail peptide; overlaps glutamate site
T4 construct: gene glnA; full-length, synthetic gene in pET15b, N-terminal His-tag, E. coli C41(DE3); apo dodecamer
T4 sequence (P12425 1-444): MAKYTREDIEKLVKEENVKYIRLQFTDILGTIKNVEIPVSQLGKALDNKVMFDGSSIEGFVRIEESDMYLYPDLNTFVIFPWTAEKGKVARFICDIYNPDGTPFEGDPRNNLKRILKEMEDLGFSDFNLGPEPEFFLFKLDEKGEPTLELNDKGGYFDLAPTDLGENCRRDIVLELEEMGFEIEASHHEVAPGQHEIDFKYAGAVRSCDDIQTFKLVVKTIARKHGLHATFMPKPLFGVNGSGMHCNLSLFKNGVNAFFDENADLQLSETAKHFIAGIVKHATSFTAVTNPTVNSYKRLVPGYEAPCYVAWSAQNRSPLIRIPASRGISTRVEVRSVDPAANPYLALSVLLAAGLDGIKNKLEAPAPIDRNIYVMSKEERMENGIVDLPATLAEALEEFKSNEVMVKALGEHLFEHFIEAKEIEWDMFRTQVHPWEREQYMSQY

NC(=O)CC[C@H](N)C(=O)O [glutamine]
pKd (Sa GS): 3.30 | cryo-EM structure 2.07-2.28 Å (Pp GS): Glutamine binds identically in each structure to form FBI-GS | cryo-EM structure 2.61 Å (Lm GS): Glutamine binds identically in each structure to form FBI-GS | cryo-EM structure 1.96 Å (Bs GS): Glutamine binds identically in each structure to form FBI-GS
